Measured values taken from US20260125382A1, “COMPOUNDS FOR INHIBITING OR DEGRADING CDK2 AND/OR CDK9 AND MEDICINAL USE THEREOF” (KOREA RESEARCH INSTITUTE OF CHEMICAL TECHNOLOGY, priority 2022, published 2026).

Assays:
CDK2 = target: T1, CDK2 (Homo sapiens, UniProt P24941); experiment: CDK protein degradation activity (Western blotting), CDK2; type: cell-based; settings: MDA-MB-231 cells, 16 hours, Western blot
T1 construct: endogenous in cells; host or cells: MDA-MB-231
In short: (§1)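 MDA-MB-231 cells were treated with compound at final concentrations of 100 nM, 1 μM and 10 μM, or DMSO vehicle, for 16 h. Lysates were resolved by SDS-PAGE and immunoblotted for CDK2, CDK9 and tubulin, with band intensities quantified densitometrically.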

CDK9 = target: T2, CDK9 (Homo sapiens, UniProt P50750); experiment: CDK protein degradation activity (Western blotting), CDK9; type: cell-based; settings: MDA-MB-231 cells, 16 hours, Western blot
T2 construct: endogenous in cells; host or cells: MDA-MB-231
In short: as §1

T2 sequence (P50750 whole entry): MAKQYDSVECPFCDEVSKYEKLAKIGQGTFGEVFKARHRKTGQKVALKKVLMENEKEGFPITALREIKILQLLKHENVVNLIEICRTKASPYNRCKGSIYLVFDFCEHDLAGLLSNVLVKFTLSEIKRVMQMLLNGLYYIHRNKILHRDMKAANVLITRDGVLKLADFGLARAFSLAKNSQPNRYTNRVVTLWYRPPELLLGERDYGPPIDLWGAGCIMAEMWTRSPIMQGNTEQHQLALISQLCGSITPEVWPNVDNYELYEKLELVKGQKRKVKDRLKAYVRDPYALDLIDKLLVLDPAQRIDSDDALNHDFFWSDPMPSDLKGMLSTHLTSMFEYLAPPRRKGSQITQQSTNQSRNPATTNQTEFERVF

| SMILES | Enzyme degradation CDK2 (% remaining) @ 0.1 μM (CDK2) | Enzyme degradation CDK2 (% remaining) @ 1 μM (CDK2) | Enzyme degradation CDK2 (% remaining) @ 10 μM (CDK2) | Enzyme degradation CDK9 (% remaining) @ 0.1 μM (CDK9) | Enzyme degradation CDK9 (% remaining) @ 1 μM (CDK9) | Enzyme degradation CDK9 (% remaining) @ 10 μM (CDK9) |
| --- | --- | --- | --- | --- | --- | --- |
| Cc1cccc(C(=O)N[C@H]2C[C@@H](n3cnc4c(NCCC5CCN(CC6CCN(C(=O)COc7ccc8c(c7)C(=O)N([C@H]7CCC(=O)NC7=O)C8=O)CC6)CC5)ncnc43)C2)n1 [Compound 124, N-((1s,3s)-3-(6-((2-(1-((1-(2-((2-(2,6-dioxopiperidin-3-yl)-1,3-dioxoisoindolin-5-yl)oxy)acetyl)piperidin-4-yl)methyl)piperidin-4-yl)ethyl)amino)-9H-purin-9-yl)cyclobutyl)-6-methylpicolinamide] | 40% | 20% | 10% | 0/0/0% | 0/0/0% | 0/0/0% |
| Cc1cccc(C(=O)NC2CC(n3cnc4c(NCc5cccc(N6CCN(c7cccc8c7C(=O)N([C@H]7CCC(=O)NC7=O)C8=O)CC6)c5)ncnc43)C2)n1 (stereo partly drawn) [Compound 126, N-((1s,3s)-3-(6-((3-(4-(2-(2,6-dioxopiperidin-3-yl)-1,3-dioxoisoindolin-4-yl)piperazin-1-yl)benzyl)amino)-9H-purin-9-yl)cyclobutyl)-6-methylpicolinamide] | 80% | 70% | 70% | 80% | 70% | 70% |
| Cc1cccc(C(=O)NC2CC(n3cnc4c(NCc5cccc(N6CCN(C(=O)COc7cccc8c7C(=O)N([C@H]7CCC(=O)NC7=O)C8=O)CC6)c5)ncnc43)C2)n1 (stereo partly drawn) [Compound 128, N-((1s,3s)-3-(6-((3-(4-(2-((2-(2,6-dioxopiperidin-3-yl)-1,3-dioxoisoindolin-4-yl)oxy)acetyl)piperazin-1-yl)benzyl)amino)-9H-purin-9-yl)cyclobutyl)-6-methylpicolinamide] | 90% | 50% | 100% | 90% | 60% | 100% |
| Cc1cccc(C(=O)N[C@H]2C[C@@H](n3cnc4c(NCc5cccc(N6CCN(C(=O)CNc7cccc8c7C(=O)N(C7CCC(=O)NC7=O)C8=O)CC6)c5)ncnc43)C2)n1 (stereo partly drawn) [Compound 130, N-((1s,3s)-3-(6-((3-(4-((2-(2,6-dioxopiperidin-3-yl)-1,3-dioxoisoindolin-4-yl)glycyl)piperazin-1-yl)benzyl)amino)-9H-purin-9-yl)cyclobutyl)-6-methylpicolinamide] | 60% | 40% | 10% | 100% | 40% | 20% |
| Cc1cccc(C(=O)N[C@H]2C[C@@H](n3cnc4c(NCc5cccc(N6CCN(C(=O)CNc7ccc8c(c7)C(=O)N([C@H]7CCC(=O)NC7=O)C8=O)CC6)c5)ncnc43)C2)n1 [Compound 131, N-((1s,3s)-3-(6-((3-(4-((2-(2,6-dioxopiperidin-3-yl)-1,3-dioxoisoindolin-5-yl)glycyl)piperazin-1-yl)benzyl)amino)-9H-purin-9-yl)cyclobutyl)-6-methylpicolinamide] | 80% | 100% | 100% | 60/60/60% | 60/60/60% | 60/60/60% |
| Cc1cccc(C(=O)N[C@H]2C[C@@H](n3cnc4c(NCc5cccc(N6CCN(CC7CCN(C(=O)COc8cccc9c8C(=O)N(C8CCC(=O)NC8=O)C9=O)CC7)CC6)c5)ncnc43)C2)n1 (stereo partly drawn) [Compound 132, N-((1s,3s)-3-(6-((3-(4-((1-(2-((2-(2,6-dioxopiperidin-3-yl)-1,3-dioxoisoindolin-4-yl)oxy)acetyl)piperidin-4-yl)methyl)piperazin-1-yl)benzyl)amino)-9H-purin-9-yl)cyclobutyl)-6-methylpicolinamide] | 60% | 40% | 40% | 70% | 10% | 0% |
| Cc1cccc(C(=O)NC2CC(n3cnc4c(NCc5cccc(N6CCN(CC7CCN(C(=O)COc8ccc9c(c8)C(=O)N([C@H]8CCC(=O)NC8=O)C9=O)CC7)CC6)c5)ncnc43)C2)n1 (stereo partly drawn) [Compound 133, N-((1s,3s)-3-(6-((3-(4-((1-(2-((2-(2,6-dioxopiperidin-3-yl)-1,3-dioxoisoindolin-5-yl)oxy)acetyl)piperidin-4-yl)methyl)piperazin-1-yl)benzyl)amino)-9H-purin-9-yl)cyclobutyl)-6-methylpicolinamide] | 90% | 70% | 80% | 80% | 0% | 0% |
| Cc1cccc(C(=O)NC2CC(n3cnc4c(NCc5cccc(N6CCN(CC7CCN(C(=O)CNc8cccc9c8C(=O)N([C@H]8CCC(=O)NC8=O)C9=O)CC7)CC6)c5)ncnc43)C2)n1 (stereo partly drawn) [Compound 134, N-((1s,3s)-3-(6-((3-(4-((1-((2-(2,6-dioxopiperidin-3-yl)-1,3-dioxoisoindolin-4-yl)glycyl)piperidin-4-yl)methyl)piperazin-1-yl)benzyl)amino)-9H-purin-9-yl)cyclobutyl)-6-methylpicolinamide] | 60% | 50% | 50% | 0/0/0% | 0/0/0% | 0/0/0% |
| Cc1cccc(C(=O)NC2CC(n3cnc4c(NCc5cccc(N6CCN(CC7CCN(C(=O)CNc8ccc9c(c8)C(=O)N([C@H]8CCC(=O)NC8=O)C9=O)CC7)CC6)c5)ncnc43)C2)n1 (stereo partly drawn) [Compound 135, N-((1s,3s)-3-(6-((3-(4-((1-((2-(2,6-dioxopiperidin-3-yl)-1,3-dioxoisoindolin-5-yl)glycyl)piperidin-4-yl)methyl)piperazin-1-yl)benzyl)amino)-9H-purin-9-yl)cyclobutyl)-6-methylpicolinamide] | 70% | 60% | 40% | 0/0/0% | 0/0/0% | 0/0/0% |

Second part, the compound after the results:

| Enzyme degradation CDK2 (% remaining) @ 0.1 μM (CDK2) | Enzyme degradation CDK2 (% remaining) @ 1 μM (CDK2) | Enzyme degradation CDK2 (% remaining) @ 10 μM (CDK2) | Enzyme degradation CDK9 (% remaining) @ 0.1 μM (CDK9) | Enzyme degradation CDK9 (% remaining) @ 1 μM (CDK9) | Enzyme degradation CDK9 (% remaining) @ 10 μM (CDK9) | SMILES |
| --- | --- | --- | --- | --- | --- | --- |
| 100% | 100% | 60% | 10% | 70% | 40% | Cc1cccc(C(=O)N[C@H]2C[C@@H](n3cnc4c(NCc5cccc(N6CCN(CC7CCN(c8cccc9c8C(=O)N([C@H]8CCC(=O)NC8=O)C9=O)CC7)CC6)c5)ncnc43)C2)n1 [Compound 136, N-((1s,3s)-3-(6-((3-(4-((1-(2-(2,6-dioxopiperidin-3-yl)-1,3-dioxoisoindolin-4-yl)piperidin-4-yl)methyl)piperazin-1-yl)benzyl)amino)-9H-purin-9-yl)cyclobutyl)-6-methylpicolinamide] |
| 30% | 40% | 40% | 0/0/0% | 0/0/0% | 0/0/0% | Cc1cccc(C(=O)N[C@H]2C[C@@H](n3cnc4c(NCc5cccc(N6CCN(CC7CCN(c8ccc9c(c8)C(=O)N([C@H]8CCC(=O)NC8=O)C9=O)CC7)CC6)c5)ncnc43)C2)n1 [Compound 137, N-((1s,3s)-3-(6-((3-(4-((1-(2-(2,6-dioxopiperidin-3-yl)-1,3-dioxoisoindolin-5-yl)piperidin-4-yl)methyl)piperazin-1-yl)benzyl)amino)-9H-purin-9-yl)cyclobutyl)-6-methylpicolinamide] |
| 80% | 90% | 80% | 80% | 90% | 70% | Cc1cccc(C(=O)NC2CC(n3cnc4c(NCCCN5CCN(C(=O)CNc6cccc7c6C(=O)N([C@@H]6CCC(=O)NC6=O)C7=O)CC5)ncnc43)C2)n1 (stereo partly drawn) [Compound 139, N-((1r,3r)-3-(6-((3-(4-((2-(2,6-dioxopiperidin-3-yl)-1,3-dioxoisoindolin-4-yl)glycyl)piperazin-1-yl)propyl)amino)-9H-purin-9-yl)cyclobutyl)-6-methylpicolinamide] |
| 70% | 50% | 60% | 90% | 80% | 50% | Cc1cccc(C(=O)N[C@H]2C[C@H](n3cnc4c(NCCCN5CCN(C(=O)CNc6ccc7c(c6)C(=O)N([C@@H]6CCC(=O)NC6=O)C7=O)CC5)ncnc43)C2)n1 [Compound 141, N-((1r,3r)-3-(6-((3-(4-((2-(2,6-dioxopiperidin-3-yl)-1,3-dioxoisoindolin-5-yl)glycyl)piperazin-1-yl)propyl)amino)-9H-purin-9-yl)cyclobutyl)-6-methylpicolinamide] |
